Assay results from the METLIN SMRT retention time set (Domingo-Almenara et al. 2019).

Assay: gradient 5% acetonitrile 3 min, to 50% in 2 min, to 85% in 15 min, held 3 min, 100 µL/min
Settings: column: Zorbax Extend-C18 2.1 x 50 mm; eluents: water / acetonitrile, 0.1% formic acid
How it was run: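 Using water and acetonitrile that each contained 0.1% formic acid, mixtures of ~100 pure standards were separated at 100 μL/min on a Zorbax Extend-C18 column (2.1 × 50 mm, 1.8 μm). The HPLC fed a quadrupole time-of-flight mass spectrometer working in positive and negative ionization mode, with dead and dwell volumes of 40 μL and 900 μL. Data were acquired over 3 months. Retention time was read from computationally picked adduct peaks after manual inspection of each.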

COc1ccc(NC(=O)c2cn(-c3cc(N4CCCC4)ncn3)cn2)cc1OC
RP-LC retention time: 748 s

CNC(=O)Nc1ccc(C2(C(=O)N3CCN(c4ccccc4)CC3)CCC2)cc1
RP-LC retention time: 754 s

Cc1nc(C)c(C(=O)N2CCC(n3c(C)cnc3C3CCC3)CC2)s1
RP-LC retention time: 580 s

COCCC1(N(C)C)CCN(S(=O)(=O)c2ccc(C#N)cc2)CC1
RP-LC retention time: 613 s

O=C(c1cc(-c2ccccn2)n[nH]1)N1CCN(C(=O)C2CCC2)CC1
RP-LC retention time: 612 s

CC(C)Cc1nc(-c2ccccc2)oc1CC(=O)NCc1ccc(F)c(Cl)c1
RP-LC retention time: 1080 s

Cn1cc(CCN2CCC(C(=O)NCc3cccs3)CC2)c2cccnc21
RP-LC retention time: 595 s

O=C(COc1ccc(Cl)cc1Cl)NCC(=O)N1CCOC(c2ccccc2)C1 (configuration not stated)
RP-LC retention time: 927 s

O=c1ccc(-c2ccc3c(c2)OCO3)nn1CCc1nc(-c2ccccc2Br)no1
RP-LC retention time: 936 s

Cc1nnc(NC(=O)CSc2nnc(CCc3nc4ccccc4[nH]3)o2)s1
RP-LC retention time: 542 s

CC1CCN(S(=O)(=O)c2nn(C)cc2C(=O)O)CC1
RP-LC retention time: 707 s

O=C(Nc1nc(-c2ccc3c(c2)OCO3)cs1)c1ccco1
RP-LC retention time: 798 s

c1ccc(CN2CCN(c3ncccc3-c3nc(-c4ccccc4)no3)CC2)cc1
RP-LC retention time: 769 s

CS(=O)(=O)Nc1cccc(NC(=O)c2coc(NC(=O)c3ccccc3)n2)c1
RP-LC retention time: 656 s

CCCCN1CCN(C(=O)CCc2cc3ccc(C)cc3[nH]c2=O)CC1
RP-LC retention time: 628 s

O=C(Nc1ccc2cn[nH]c2c1)c1ccc(=O)[nH]n1
RP-LC retention time: 567 s

CCCNC(=O)N1CCCN(C2=NS(=O)(=O)C(c3ccc(CC)cc3)=C2C)CC1
RP-LC retention time: 809 s

O=C(Cc1csc(NC(=O)c2ccccc2)n1)Nc1ccc(F)c(Cl)c1
RP-LC retention time: 869 s

Cc1ccc(C(=O)Nc2cnc(-c3cccc(Cl)c3)nc2)s1
RP-LC retention time: 1140 s

COC(=O)c1cc(OCC(=O)Nc2ccc(F)cc2)c2cc(OC)c(OC)cc2n1
RP-LC retention time: 750 s

Clc1cccc(-c2nc3ccccn3c2Nc2ccc3c(c2)OCCO3)c1
RP-LC retention time: 715 s

Cc1ccc(-c2noc(CN3N=NC4C(=O)N(c5ccc(F)c(Cl)c5)C(=O)C43)n2)cc1 (configuration not stated)
RP-LC retention time: 1090 s

COc1ccc(N2CCN(CCNC(=O)CCSc3ccccc3)CC2)cc1
RP-LC retention time: 606 s

O=C(Nc1ccc(O)c(C(=O)O)c1)Oc1ccccc1
RP-LC retention time: 801 s

COCC(O)Cn1ccnc1[N+](=O)[O-] (configuration not stated)
RP-LC retention time: 609 s

CCCN1CCN(c2ncc3c(n2)CCN(Cc2cccc(Br)c2)C3)CC1
RP-LC retention time: 565 s

Cc1ccccc1CNC(=O)C1(C)CCCN(C(=O)NCC(C)C)C1 (configuration not stated)
RP-LC retention time: 820 s

Cc1nn(-c2ccccc2)c(C)c1S(=O)(=O)N1CCC(C(=O)N2CCOCC2)CC1
RP-LC retention time: 740 s

COCCCNC(=O)C1CCCN(c2ncnc3c2nc2n3CCCCC2)C1 (configuration not stated)
RP-LC retention time: 625 s

Cc1cc(=O)n(CC(=O)NC(C)CCc2ccccc2)c(N2CCOCC2)n1 (configuration not stated)
RP-LC retention time: 713 s

O=S(=O)(c1cccc2cccnc12)N1CCc2ccccc2C1
RP-LC retention time: 876 s

O=C(NCc1ccccc1C(F)(F)F)C1CCN(c2nnc(-c3ccccc3)o2)CC1
RP-LC retention time: 892 s

C[C@H]1CC[C@@H]2N(C1)C[C@H]1[C@@H]3C[C@H]4[C@@H](CC(=O)[C@H]5C[C@@H](O)CC[C@@]54C)[C@@H]3CC[C@H]1[C@]2(C)O
RP-LC retention time: 601 s

Fc1cccc(-c2noc(-c3ccc(N4CCN(CCOc5ccc(Cl)cc5)CC4)nc3)n2)c1
RP-LC retention time: 920 s

COc1cccc(NC(=O)Cn2cnc3c(sc4nc(-c5ccccc5)ccc43)c2=O)c1
RP-LC retention time: 982 s

COc1ccc(OC)c(S(=O)(=O)N2CCC(Cn3c(C)cnc3C)C2)c1 (configuration not stated)
RP-LC retention time: 626 s

CC1=C(c2ccc(C)cc2)S(=O)(=O)N=C1N1CCCN(C(=O)C(C)(C)C)CC1
RP-LC retention time: 858 s

O=C(c1ccc2snnc2c1)N1CCN(c2ccccn2)CC1
RP-LC retention time: 576 s

CC1CCC(NC(=O)C2CCN(c3nc4ccccc4[nH]3)CC2)CC1 (configuration not stated)
RP-LC retention time: 649 s

CCOc1cccc(-c2noc(Cn3ncn4nc(-c5cccs5)cc4c3=O)n2)c1
RP-LC retention time: 1140 s

COc1cc(NC(=O)C2CN(S(=O)(=O)C3CC3)CC23CCCCC3)cc(OC)c1 (configuration not stated)
RP-LC retention time: 955 s

CSc1ccccc1NC(=O)c1coc(NC(=O)c2ccco2)n1
RP-LC retention time: 699 s

O=C(c1cccs1)N1CCC(c2noc(-c3ccncc3)n2)C1 (configuration not stated)
RP-LC retention time: 685 s

Cc1ccc(NC(=O)N2CCC(n3cnc4cc(F)ccc4c3=O)CC2)c(C)c1
RP-LC retention time: 811 s

O=C(NCc1cccs1)C(=O)Nc1ccncc1
RP-LC retention time: 548 s

O=C(Nc1cc(-c2cccs2)no1)c1cc(F)cc(F)c1
RP-LC retention time: 1010 s

CCc1noc(-c2ccnc(-n3ncc(C(=O)N4CCCC4)c3C)c2)n1
RP-LC retention time: 840 s

C=CCN(CC=C)S(=O)(=O)c1ccc(C(=O)N2CCc3ccccc3C2)cc1
RP-LC retention time: 940 s

CCC(=O)N1CCCC1c1nc(CCOCC2CCCC2)no1 (configuration not stated)
RP-LC retention time: 837 s

COc1ccc(-c2cc3n(n2)CCCN(S(=O)(=O)c2ccc(NC(C)=O)cc2)C3)cc1
RP-LC retention time: 779 s

Cn1c(=O)n(CC(=O)O)c(=O)c2c1nc1n2CCN1c1ccc(Cl)cc1
RP-LC retention time: 748 s

CCC(C)NC(=O)c1ccc2c(c1)Sc1ncccc1C(=O)N2CC (configuration not stated)
RP-LC retention time: 749 s

O=C(Nc1cccn2cnnc12)c1cnccn1
RP-LC retention time: 590 s

Cc1cccc(C)c1OCC(=O)c1ccc2c(c1)N(CCCC(=O)NCC1CCCO1)C(=O)CO2 (configuration not stated)
RP-LC retention time: 803 s

Cc1ccc(C(=O)N2CCN(S(=O)(=O)c3cc4c5c(c3)CCC(=O)N5CCC4)CC2)cc1C
RP-LC retention time: 850 s

CCCn1c(=O)c(-c2ccc(C(=O)NC(C)C)cc2)nc2ccccc21
RP-LC retention time: 915 s

Cc1ccc(C)c(NS(=O)(=O)c2cc(-c3nc(C(C)(C)C)cs3)cs2)c1
RP-LC retention time: 1310 s

CC(C)c1noc(-c2cc(=O)n(CC(=O)NCc3ccccc3Cl)c3ccccc23)n1
RP-LC retention time: 988 s

Cc1ccccc1C(=O)Nc1nnc(SCc2nnc(-c3ccccc3)o2)s1
RP-LC retention time: 917 s

Cc1ccc(Cl)cc1N1CCN(C(=O)CCN2C(=O)C3C4C=CC(C4)C3C2=O)CC1 (configuration not stated)
RP-LC retention time: 989 s

CCN(CC)CCNC(=O)Cn1ncc2c3ccccc3n(Cc3ccccc3)c2c1=O
RP-LC retention time: 605 s

CCCNC(=O)N1C[C@@H]2C(=O)N(CCc3ccccc3)C(=O)[C@@H]2C1
RP-LC retention time: 716 s

CC(=O)Nc1nsc(N2CCC(C(=O)NCc3ccc4c(c3)OCO4)CC2)n1
RP-LC retention time: 641 s

CN(C)c1ccc(-c2nc3cnccn3c2Nc2cccc(C(N)=O)c2)cc1
RP-LC retention time: 609 s

Cc1cc(C(=O)NC2CCc3nnc(C)n3CC2)c(C)n1Cc1ccco1 (configuration not stated)
RP-LC retention time: 643 s

Cc1ccc(CNC(=O)C2(C)CCCN(C(=O)Nc3ccc(C)cc3Cl)C2)cc1 (configuration not stated)
RP-LC retention time: 1080 s

Cc1cccc(C)c1-n1ccn(Cc2nc(-c3ccccc3)no2)c(=O)c1=O
RP-LC retention time: 865 s
